A word on the inhibition: it is the drop in the measured response relative to a control, in per cent. What is called IC50 is the concentration at which inhibition is half-maximal.

Structures are written as SMILES. Bounds are passed on as bounds.

Results on 16 compounds are retold here after US10780090B2, “Heteroaryl compounds useful as inhibitors of SUMO activating enzyme” (Millennium Pharmaceuticals, Inc., priority 2014, dated 2020).

In the experiment the target is recombinant human SAE enzyme (Homo sapiens (Human), UniProt Q9UBT2). Briefly: SAE HTRF enzyme assay. The format is biochemical. The settings on record: for inhibition at 0.111 µM: read-out: Percent Inhibition. Put shortly:
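Enzyme reaction: 50 mM HEPES pH 7.5, 5 mM MgCl2, 250 μM GSH, 0.05% BSA, 0.5 μM ATP, 0.01 μM Ubc9-GST, 0.125 μM Sumo-Flag, 0.11 nM SAE; 105 min, 24° C. Stop/detect, 2 h, then HTRF. % inh or IC50.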
For orientation: TR-FRET usually uses a lanthanide donor and a delayed reading to cut background.

[1] abbreviates: SAE inhibition at compound concentration 0.111 μM.
Where [2] appears, read: SAE inhibition, class symbols, legend in nM.

Sequence of recombinant human SAE enzyme (Q9UBT2 whole entry): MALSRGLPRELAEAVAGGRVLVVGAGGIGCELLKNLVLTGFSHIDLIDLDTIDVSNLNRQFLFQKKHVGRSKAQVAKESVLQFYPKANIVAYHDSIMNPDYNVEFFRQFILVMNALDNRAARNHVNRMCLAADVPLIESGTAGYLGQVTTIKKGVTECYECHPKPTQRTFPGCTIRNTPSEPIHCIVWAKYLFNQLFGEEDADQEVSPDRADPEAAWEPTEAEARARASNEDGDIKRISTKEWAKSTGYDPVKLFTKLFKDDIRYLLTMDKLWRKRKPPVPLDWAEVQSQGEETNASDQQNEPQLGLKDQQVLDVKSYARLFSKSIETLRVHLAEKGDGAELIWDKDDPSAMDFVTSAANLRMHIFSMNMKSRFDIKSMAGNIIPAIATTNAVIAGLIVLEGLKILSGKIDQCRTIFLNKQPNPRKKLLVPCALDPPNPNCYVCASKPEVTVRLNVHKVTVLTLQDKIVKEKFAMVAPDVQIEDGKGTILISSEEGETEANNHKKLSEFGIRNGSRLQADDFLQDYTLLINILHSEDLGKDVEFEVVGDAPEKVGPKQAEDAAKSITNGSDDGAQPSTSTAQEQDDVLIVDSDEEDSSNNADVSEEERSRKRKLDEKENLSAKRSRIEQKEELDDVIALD
Sequence of recombinant human SAE enzyme (Q9UBE0 whole entry partner): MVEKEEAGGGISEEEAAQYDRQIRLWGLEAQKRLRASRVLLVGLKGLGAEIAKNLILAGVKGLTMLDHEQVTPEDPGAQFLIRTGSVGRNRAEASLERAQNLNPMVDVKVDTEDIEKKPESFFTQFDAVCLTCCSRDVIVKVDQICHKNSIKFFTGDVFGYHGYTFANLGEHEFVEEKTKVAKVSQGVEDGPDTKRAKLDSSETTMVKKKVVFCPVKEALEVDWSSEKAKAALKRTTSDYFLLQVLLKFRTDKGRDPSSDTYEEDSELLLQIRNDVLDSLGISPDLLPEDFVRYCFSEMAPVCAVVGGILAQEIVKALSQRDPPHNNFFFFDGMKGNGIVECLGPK

For the compound `COCc1sc(C(=O)c2cncnc2N[C@@H]2C[C@H](COS(N)(=O)=O)[C@@H](O)C2)cc1Cc1cccc(Cl)c1` [I-44, {(1R,2S,4R)-4-[(5-{[4-(3-chlorobenzyl)-5-(methoxymethyl)-2-thienyl]carbonyl}pyrimidin-4-yl)amino]-2-hydroxycyclopentyl}methyl sulfamate], the inhibition at 0.111 µM (Concentration 0.111 μM) was 100%. Further, where the note is “class symbols A/B/C”, the IC50 was less than 10 nM. Taken in the same sequence, the figures for `NS(=O)(=O)OC[C@H]1C[C@@H](Nc2ncncc2C(=O)c2cc(Cn3ccc4ccccc43)cs2)C[C@@H]1O` [I-114, {(1R,2S,4R)-2-hydroxy-4-[(5-{[4-(1H-indol-1-ylmethyl)-2-thienyl]carbonyl}pyrimidin-4-yl)amino]cyclopentyl}methyl sulfamate] were 97% and less than 10 nM.

As to `CN1Cc2ccc(Cl)cc2[C@@H]1c1cc(C(=O)c2cncnc2N[C@@H]2C[C@H](COS(N)(=O)=O)[C@@H](O)C2)sc1Cl` (single isomer, unassigned) [I-284b, [(1R,2S,4R)-4-{[5-({5-chloro-4-[(1R)-6-chloro-2-methyl-2,3-dihydro-1H-isoindol-1-yl]-2-thienyl}carbonyl)pyrimidin-4-yl]amino}-2-hydroxycyclopentyl]methyl sulfamate or [(1R,2S,4R)-4-{[5-({5-chloro-4-[(1S)-6-chloro-2-methyl-2,3-dihydro-1H-isoindol-1-yl]-2-thienyl}carbonyl)pyrimidin-4-yl]amino}-2-hydroxycyclopentyl]methyl sulfamate], under setting [1], the “Percent Inhibition” value is listed as 99%. The 50% inhibitory concentration (IC50) under setting [2] was less than 10 nM. For the compound `NS(=O)(=O)OC[C@H]1C[C@@H](Nc2ncncc2C(=O)c2cc(Cn3cnc4ccccc43)cs2)C[C@@H]1O` [I-192, {(1R,2S,4R)-4-[(5-{[4-(1H-benzimidazol-1-ylmethyl)-2-thienyl]carbonyl}pyrimidin-4-yl)amino]-2-hydroxycyclopentyl}methyl sulfamate], the inhibition at 0.111 µM (Concentration 0.111 μM) stood at 66%. Further, where the note is “class symbols A/B/C”, the IC50 lay within 10 to 100 nM. For `CO[C@H](c1cccc(Cl)c1)c1cc(C(=O)c2cncnc2N[C@@H]2C[C@H](COS(N)(=O)=O)[C@@H](O)C2)sc1Cl` (mixture of isomers) [I-90, [(1R,2S,4R)-4-{[5-({5-chloro-4-[(R)-(3-chlorophenyl)(methoxy)methyl]-2-thienyl}carbonyl)pyrimidin-4-yl]amino}-2-hydroxycyclopentyl]methyl sulfamate and [(1R,2S,4R)-4-{[5-({5-chloro-4-[(S)-(3-chlorophenyl)(methoxy)methyl]-2-thienyl}carbonyl)pyrimidin-4-yl]amino}-2-hydroxycyclopentyl]methyl sulfamate], the “Percent Inhibition” value (Concentration 0.111 μM) is 97. Moreover, the IC50 (class symbols A/B/C) is less than 10 nM.

For `NS(=O)(=O)OC[C@H]1C[C@@H](Nc2ncncc2C(=O)c2cc([C@@H]3OCCc4ccc(Br)cc43)cs2)C[C@@H]1O.NS(=O)(=O)OC[C@H]1C[C@@H](Nc2ncncc2C(=O)c2cc([C@H]3OCCc4ccc(Br)cc43)cs2)C[C@@H]1O` (mixture of isomers) [I-268, [(1R,2S,4R)-4-{[5-({4-[(1R)-7-bromo-3,4-dihydro-1H-isochromen-1-yl]-2-thienyl}carbonyl)pyrimidin-4-yl]amino}-2-hydroxycyclopentyl]methyl sulfamate and [(1R,2S,4R)-4-{[5-({4-[(1S)-7-bromo-3,4-dihydro-1H-isochromen-1-yl]-2-thienyl}carbonyl)pyrimidin-4-yl]amino}-2-hydroxycyclopentyl]methyl sulfamate], where the note is “Concentration 0.111 μM”, the “Percent Inhibition” value is on record as 100. In addition, the IC50 (class symbols A/B/C) is less than 10 nM. Taken in the same sequence, the figures for `NS(=O)(=O)OC[C@H]1C[C@@H](Nc2ncncc2C(=O)c2cc([C@H](O)c3cc(Cl)ccc3Cl)c(Cl)s2)C[C@@H]1O` (mixture of isomers) [I-149, [(1R,2S,4R)-4-{[5-({5-chloro-4-[(R)-(2,5-dichlorophenyl)(hydroxy)methyl]-2-thienyl}carbonyl)pyrimidin-4-yl]amino}-2-hydroxycyclopentyl]methyl sulfamate and [(1R,2S,4R)-4-{[5-({5-chloro-4-[(S)-(2,5-dichlorophenyl)(hydroxy)methyl]-2-thienyl}carbonyl)pyrimidin-4-yl]amino}-2-hydroxycyclopentyl]methyl sulfamate] were 97 and less than 10 nM. For `CN1Cc2ccc(Cl)cc2[C@@H]1c1csc(C(=O)c2cncnc2N[C@@H]2C[C@H](COS(N)(=O)=O)[C@@H](O)C2)c1` (single isomer, unassigned) [I-265b, [(1R,2S,4R)-4-{[5-({4-[(1R)-6-chloro-2-methyl-2,3-dihydro-1H-isoindol-1-yl]-2-thienyl}carbonyl)pyrimidin-4-yl]amino}-2-hydroxycyclopentyl]methyl sulfamate or [(1R,2S,4R)-4-{[5-({4-[(1S)-6-chloro-2-methyl-2,3-dihydro-1H-isoindol-1-yl]-2-thienyl}carbonyl)pyrimidin-4-yl]amino}-2-hydroxycyclopentyl]methyl sulfamate], in that order: 72 and 10 to 100 nM. For `NS(=O)(=O)OC[C@H]1C[C@@H](Nc2ncncc2C(=O)c2cc([C@H](O)c3cccc(Cl)c3)c(Cl)s2)C[C@@H]1O` (single isomer, unassigned) [I-9b, [(1R,2S,4R)-4-{[5-({5-chloro-4-[(R)-(3-chlorophenyl)(hydroxy)methyl]-2-thienyl}carbonyl)pyrimidin-4-yl]amino}-2-hydroxycyclopentyl]methyl sulfamate or [(1R,2S,4R)-4-{[5-({5-chloro-4-[(S)-(3-chlorophenyl)(hydroxy)methyl]-2-thienyl}carbonyl)pyrimidin-4-yl]amino}-2-hydroxycyclopentyl]methyl sulfamate], in that order: 97 and less than 10 nM. As to `NS(=O)(=O)OC[C@H]1C[C@@H](Nc2ncncc2C(=O)c2cc(COc3ccccc3I)cs2)C[C@@H]1O` [I-161, [(1R,2S,4R)-2-Hydroxy-4-{[-({4-(2-iodophenoxy)methyl]-2-thienyl}carbonyl)pyrimidin-4-yl]amino}cyclopentyl]methyl sulfamate], for the setting “Concentration 0.111 μM”, the “Percent Inhibition” value is on record as 91. The IC50 (class symbols A/B/C) was less than 10 nM. Regarding `COc1ccc2c(c1)N(Cc1cc(C(=O)c3cncnc3N[C@@H]3C[C@H](COS(N)(=O)=O)[C@@H](O)C3)sc1C)CC2` [I-126, [(1R,2S,4R)-2-hydroxy-4-{[5-({4-[(6-methoxy-2,3-dihydro-1H-indol-1-yl)methyl]-5-methyl-2-thienyl}carbonyl)pyrimidin-4-yl]amino}cyclopentyl]methyl sulfamate], under “Concentration 0.111 μM”, the inhibition at 0.111 µM came out at 98%. Further, the concentration for half-maximal inhibition (IC50) (class symbols A/B/C) was less than 10 nM.

Regarding `Cc1nc2c(s1)[C@H](c1cc(C(=O)c3cncnc3N[C@@H]3C[C@H](COS(N)(=O)=O)[C@@H](O)C3)sc1C)OCC2` (single isomer, unassigned) [I-305a, [(1R,2S,4R)-2-hydroxy-4-{[5-({5-methyl-4-[(4S)-2-methyl-6,7-dihydro-4H-pyrano[4,3-d][1,3]thiazol-4-yl]-2-thienyl}carbonyl)pyrimidin-4-yl]amino}cyclopentyl]methyl sulfamate or [(1R,2S,4R)-2-hydroxy-4-{[5-({5-methyl-4-[(4R)-2-methyl-6,7-dihydro-4H-pyrano[4,3-d][1,3]thiazol-4-yl]-2-thienyl}carbonyl)pyrimidin-4-yl]amino}cyclopentyl]methyl sulfamate], the “Percent Inhibition” value under setting [1] worked out at 28%. The IC50 under setting [2] was in the range of 100 to 1000 nM. Take `NS(=O)(=O)OC[C@H]1C[C@@H](Nc2ncncc2C(=O)c2cc(Cc3cccc(Cl)c3)co2)C[C@@H]1O` [I-79, [(1R,2S,4R)-4-({5-[4-(3-chlorobenzyl)-2-furoyl]pyrimidin-4-yl}amino)-2-hydroxycyclopentyl]methyl sulfamate]: for the setting “Concentration 0.111 μM”, the inhibition at 0.111 µM is 97%. Turning to `NS(=O)(=O)OC[C@H]1C[C@@H](Nc2ncncc2C(=O)c2cc(Cc3ccc(F)c(Cl)c3)cs2)C[C@@H]1O` [I-61, {(1R,2S,4R)-4-[(5-{[4-(3-chloro-4-fluorobenzyl)-2-thienyl]carbonyl}pyrimidin-4-yl)amino]-2-hydroxycyclopentyl}methyl sulfamate], for the setting “Concentration 0.111 μM”, the inhibition at 0.111 µM is 98%. The half-inhibitory concentration (IC50) (class symbols A/B/C) was less than 10 nM. On to `NS(=O)(=O)OC[C@H]1C[C@@H](Nc2ncncc2C(=O)c2cc([C@@H]3NCCc4ccc(Br)cc43)c(Cl)s2)[C@H](O)[C@@H]1O` (single isomer, unassigned) [I-259b, [(1R,2R,3S,4R)-4-{[5-({4-[(1R)-7-bromo-1,2,3,4-tetrahydroisoquinolin-1-yl]-5-chloro-2-thienyl}carbonyl)pyrimidin-4-yl]amino}-2,3-dihydroxycyclopentyl]methyl sulfamate or [(1R,2R,3S,4R)-4-{[5-({4-[(1S)-7-bromo-1,2,3,4-tetrahydroisoquinolin-1-yl]-5-chloro-2-thienyl}carbonyl)pyrimidin-4-yl]amino}-2,3-dihydroxycyclopentyl]methyl sulfamate], for which, for the setting “Concentration 0.111 μM”, the “Percent Inhibition” value is reported as 97. In addition, the IC50 (class symbols A/B/C) is less than 10 nM.

Take `Cc1sc(C(=O)c2cncnc2N[C@@H]2C[C@H](COS(N)(=O)=O)[C@@H](O)[C@@H]2F)cc1[C@H]1OCCc2ccc(Cl)cc21` (single isomer, unassigned) [I-264b, [(1R,2R,3R,4R)-4-{[5-({4-[(1S)-7-chloro-3,4-dihydro-1H-isochromen-1-yl]-5-methyl-2-thienyl}carbonyl)pyrimidin-4-yl]amino}-3-fluoro-2-hydroxycyclopentyl]methyl sulfamate or [(1R,2R,3R,4R)-4-{[5-({4-[(1R)-7-chloro-3,4-dihydro-1H-isochromen-1-yl]-5-methyl-2-thienyl}carbonyl)pyrimidin-4-yl]amino}-3-fluoro-2-hydroxycyclopentyl]methyl sulfamate]: the “Percent Inhibition” value (Concentration 0.111 μM) is 98. Besides, the IC50 (class symbols A/B/C) is less than 10 nM.
